For orientation: IC50 means the point on the concentration scale where inhibition reaches its midpoint. One may read the inhibition as the change of the read-out against control, counted positive when it falls. Read a high inhibition as a strong effect. The solubility is how much of the substance goes into solution per volume. Low values mean a poorly soluble substance, high ones a readily soluble substance. A word on the bioavailability: it is the share of a dose that reaches the circulation, judged against a reference dose that is usually intravenous. Lower therefore signals little systemic uptake.

≈ marks a conversion by molar mass, not a printed value.

Results on one compound are retold here after ChEMBL document CHEMBL3867480 (Bioorg Med Chem, 2016).

The target of one data set is Collagenase 3 (Homo sapiens, UniProt P45452).
The next data set has as its target Stromelysin-2 (Homo sapiens, UniProt P09238). Kind of data set: Inhibition of recombinant human […]-activated MMP10 using Cy3-PLGLK(Cy5Q)AR-NH2 as substrate measured after 40 mins by spectrofluorimetric method.
Data set [1] addresses Matrix metalloproteinase-9 (Homo sapiens, UniProt P14780). Kind of data set: Inhibition of recombinant human […]-activated MMP9 using Cy3-PLGLK(Cy5Q)AR-NH2 as substrate measured after 40 mins by spectrofluorimetric method.
The target of a further data set is T1, Matrilysin (Homo sapiens, UniProt P09237).
T1 sequence (P09237 whole entry): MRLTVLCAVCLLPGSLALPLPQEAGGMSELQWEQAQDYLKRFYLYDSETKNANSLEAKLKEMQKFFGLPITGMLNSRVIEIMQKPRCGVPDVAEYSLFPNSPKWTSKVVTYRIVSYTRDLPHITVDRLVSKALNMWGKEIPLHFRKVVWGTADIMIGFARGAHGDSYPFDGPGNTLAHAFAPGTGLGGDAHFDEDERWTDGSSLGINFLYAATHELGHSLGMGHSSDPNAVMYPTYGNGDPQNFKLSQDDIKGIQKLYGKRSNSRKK
Kind of data set: Inhibition of recombinant human […]-activated MMP7 using Cy3-PLGLK(Cy5Q)AR-NH2 as substrate measured after 40 mins by spectrofluorimetric method.

A further data set has as its target CYP3A4 (Homo sapiens, UniProt P08684). The experiment in a line: Inhibition of CYP3A4 (unknown origin) at 10 uM. Type of data set: ADME.
For data set [2], the target named is Disintegrin and metalloproteinase domain-containing protein 17 (Homo sapiens, UniProt P78536). The experiment in a line: Inhibition of recombinant human TACE using Cy3-PLAQAV(Cy5Q-L-2,3-diaminopropionic acid)-RSSSR-NH2 as substrate measured after 40 mins by spectrofluorimetric method.
In data set [3] the target is Matrix metalloproteinase-14 (Homo sapiens, UniProt P50281). The experiment in a line: Inhibition of recombinant human GST-tagged MMP14 using Cy3-PLGLK(Cy5Q)AR-NH2 as substrate measured after 40 mins by spectrofluorimetric method.
In a further data set the target is T2, Interstitial collagenase (Homo sapiens, UniProt P03956).
T2 sequence (P03956 whole entry): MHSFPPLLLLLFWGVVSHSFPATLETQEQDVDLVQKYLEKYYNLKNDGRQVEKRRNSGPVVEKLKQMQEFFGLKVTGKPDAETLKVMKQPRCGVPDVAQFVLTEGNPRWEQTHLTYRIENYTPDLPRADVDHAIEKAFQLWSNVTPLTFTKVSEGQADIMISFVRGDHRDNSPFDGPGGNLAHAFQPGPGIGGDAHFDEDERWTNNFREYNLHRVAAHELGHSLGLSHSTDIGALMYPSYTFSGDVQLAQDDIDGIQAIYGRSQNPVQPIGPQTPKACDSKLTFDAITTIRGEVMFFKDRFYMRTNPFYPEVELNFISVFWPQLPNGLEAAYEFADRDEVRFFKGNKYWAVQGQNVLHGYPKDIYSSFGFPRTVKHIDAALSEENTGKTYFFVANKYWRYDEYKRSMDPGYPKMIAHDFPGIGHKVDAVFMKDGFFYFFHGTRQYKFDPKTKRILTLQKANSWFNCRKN
The experiment in a line: Inhibition of recombinant human […]-activated MMP1 using Cy3-PLGLK(Cy5Q)AR-NH2 as substrate measured after 40 mins by spectrofluorimetric method.

Data set [4] is described as follows: Solubility of the compound at pH 6.8. The following applies: buffer. Type of data set: physicochemical.
A further data set concerns the target Neutrophil collagenase (Homo sapiens, UniProt P22894). Kind of data set: Inhibition of recombinant human […]-activated MMP8 using Cy3-PLGLK(Cy5Q)AR-NH2 as substrate measured after 40 mins by spectrofluorimetric method.
Data set [5] is described as follows: Clearance in rat liver microsomes. In kind it is ADME. The following applies: read-out: CLH. On the technique in general: Liver microsomes are vesicles of endoplasmic reticulum, rich in cytochrome P450 enzymes.
The next data set addresses Stromelysin-1 (Homo sapiens, UniProt P08254). The experiment in a line: Inhibition of recombinant human […]-activated MMP3 using Cy3-PLGLK(Cy5Q)AR-NH2 as substrate measured after 40 mins by spectrofluorimetric method.
A short description of data set [6]: Clearance in rat at 0.1 mg/kg, iv or 1 mg/kg, po. In kind it is ADME, organism-based. The following applies: in vivo.
The target of data set [7] is 72 kDa type IV collagenase (Homo sapiens, UniProt P08253). Kind of data set: Inhibition of recombinant human […]-activated MMP2 using Cy3-PLGLK(Cy5Q)AR-NH2 as substrate measured after 40 mins by spectrofluorimetric method.
In data set [8] the target is Macrophage metalloelastase (Homo sapiens, UniProt P39900). The experiment in a line: Inhibition of recombinant human […]-activated MMP12 using Cy3-PLGLK(Cy5Q)AR-NH2 as substrate measured after 40 mins by spectrofluorimetric method.
A short description of data set [9]: Oral bioavailability in rat at 1 mg/kg. Type of data set: ADME, organism-based. As to conditions: in vivo.
Data set [10] is described as follows: Volume of distribution in rat at 0.1 mg/kg, iv or 1 mg/kg, po. In kind it is ADME, organism-based. As to conditions: in vivo.
Data set [11] can be described thus: Clearance in human liver microsomes. The following applies: read-out: CLH. In kind it is ADME.
Data set [12] in a line: Permeability of the compound at pH 7.4 by PAMPA assay. As to conditions: read-out: permeability. In kind it is ADME.

Stromelysin-1, sequence (P08254 whole entry): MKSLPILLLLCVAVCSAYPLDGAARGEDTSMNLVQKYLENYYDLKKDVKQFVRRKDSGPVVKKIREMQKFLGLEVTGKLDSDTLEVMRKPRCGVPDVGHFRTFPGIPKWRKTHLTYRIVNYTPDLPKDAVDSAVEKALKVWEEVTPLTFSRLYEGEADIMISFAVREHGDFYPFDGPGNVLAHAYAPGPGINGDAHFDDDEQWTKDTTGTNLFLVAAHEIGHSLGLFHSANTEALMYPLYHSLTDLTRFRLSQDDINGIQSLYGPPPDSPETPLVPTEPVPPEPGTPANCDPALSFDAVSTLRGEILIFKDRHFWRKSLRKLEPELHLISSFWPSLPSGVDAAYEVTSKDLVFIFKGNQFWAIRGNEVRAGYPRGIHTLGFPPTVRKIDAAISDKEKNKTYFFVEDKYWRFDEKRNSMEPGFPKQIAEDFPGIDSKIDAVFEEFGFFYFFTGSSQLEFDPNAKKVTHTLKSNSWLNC
CYP3A4, sequence (P08684 whole entry, the tested form may be a part): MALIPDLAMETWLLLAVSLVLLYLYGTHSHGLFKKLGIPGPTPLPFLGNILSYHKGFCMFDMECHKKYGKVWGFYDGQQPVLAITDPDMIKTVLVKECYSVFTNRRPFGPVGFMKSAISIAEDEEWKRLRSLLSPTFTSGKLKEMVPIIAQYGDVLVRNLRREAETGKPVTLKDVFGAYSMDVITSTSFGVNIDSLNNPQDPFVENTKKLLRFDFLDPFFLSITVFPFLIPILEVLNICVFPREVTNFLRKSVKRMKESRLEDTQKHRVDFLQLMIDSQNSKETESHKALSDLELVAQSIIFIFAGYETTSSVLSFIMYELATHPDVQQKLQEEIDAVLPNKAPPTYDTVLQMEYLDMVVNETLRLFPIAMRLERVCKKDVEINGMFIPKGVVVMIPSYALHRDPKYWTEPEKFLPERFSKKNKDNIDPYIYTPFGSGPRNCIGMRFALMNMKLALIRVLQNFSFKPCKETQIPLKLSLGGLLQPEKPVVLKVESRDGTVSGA
Disintegrin and metalloproteinase domain-containing protein 17, sequence (P78536 whole entry, the tested form may be a part): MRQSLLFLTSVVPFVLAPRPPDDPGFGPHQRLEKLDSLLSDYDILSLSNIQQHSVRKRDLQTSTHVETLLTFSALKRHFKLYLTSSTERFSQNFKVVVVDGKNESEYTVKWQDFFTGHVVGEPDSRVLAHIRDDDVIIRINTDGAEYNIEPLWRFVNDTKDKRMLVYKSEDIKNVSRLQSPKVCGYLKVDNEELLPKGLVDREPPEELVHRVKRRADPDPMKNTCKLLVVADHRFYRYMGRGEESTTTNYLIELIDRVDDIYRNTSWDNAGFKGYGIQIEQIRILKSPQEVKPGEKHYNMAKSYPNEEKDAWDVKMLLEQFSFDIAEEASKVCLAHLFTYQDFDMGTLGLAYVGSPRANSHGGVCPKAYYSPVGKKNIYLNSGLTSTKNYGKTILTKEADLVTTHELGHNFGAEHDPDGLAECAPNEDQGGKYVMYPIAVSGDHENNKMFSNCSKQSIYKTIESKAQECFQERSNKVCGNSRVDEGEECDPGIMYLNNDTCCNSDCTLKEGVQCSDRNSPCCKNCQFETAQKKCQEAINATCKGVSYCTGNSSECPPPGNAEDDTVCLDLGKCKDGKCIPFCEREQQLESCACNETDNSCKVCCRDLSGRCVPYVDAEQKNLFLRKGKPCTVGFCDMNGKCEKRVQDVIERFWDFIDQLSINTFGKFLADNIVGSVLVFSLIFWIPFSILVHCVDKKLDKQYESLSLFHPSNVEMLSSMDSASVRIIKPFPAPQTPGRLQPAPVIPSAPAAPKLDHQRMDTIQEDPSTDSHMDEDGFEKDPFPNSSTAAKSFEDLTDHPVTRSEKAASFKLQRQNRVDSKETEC
Macrophage metalloelastase, sequence (P39900 whole entry): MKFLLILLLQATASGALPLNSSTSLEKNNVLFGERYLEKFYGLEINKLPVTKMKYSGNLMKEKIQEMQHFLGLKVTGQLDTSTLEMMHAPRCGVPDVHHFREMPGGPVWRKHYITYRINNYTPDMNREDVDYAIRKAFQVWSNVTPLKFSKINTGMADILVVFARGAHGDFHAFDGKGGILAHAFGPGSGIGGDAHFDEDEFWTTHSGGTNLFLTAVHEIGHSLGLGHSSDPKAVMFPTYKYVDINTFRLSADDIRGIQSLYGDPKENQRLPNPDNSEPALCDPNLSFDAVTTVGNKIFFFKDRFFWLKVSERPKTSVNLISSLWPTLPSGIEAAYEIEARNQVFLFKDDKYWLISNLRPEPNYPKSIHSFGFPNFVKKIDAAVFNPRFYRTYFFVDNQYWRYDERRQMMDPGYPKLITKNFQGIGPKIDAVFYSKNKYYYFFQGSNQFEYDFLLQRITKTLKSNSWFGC
Matrix metalloproteinase-9, sequence (P14780 whole entry): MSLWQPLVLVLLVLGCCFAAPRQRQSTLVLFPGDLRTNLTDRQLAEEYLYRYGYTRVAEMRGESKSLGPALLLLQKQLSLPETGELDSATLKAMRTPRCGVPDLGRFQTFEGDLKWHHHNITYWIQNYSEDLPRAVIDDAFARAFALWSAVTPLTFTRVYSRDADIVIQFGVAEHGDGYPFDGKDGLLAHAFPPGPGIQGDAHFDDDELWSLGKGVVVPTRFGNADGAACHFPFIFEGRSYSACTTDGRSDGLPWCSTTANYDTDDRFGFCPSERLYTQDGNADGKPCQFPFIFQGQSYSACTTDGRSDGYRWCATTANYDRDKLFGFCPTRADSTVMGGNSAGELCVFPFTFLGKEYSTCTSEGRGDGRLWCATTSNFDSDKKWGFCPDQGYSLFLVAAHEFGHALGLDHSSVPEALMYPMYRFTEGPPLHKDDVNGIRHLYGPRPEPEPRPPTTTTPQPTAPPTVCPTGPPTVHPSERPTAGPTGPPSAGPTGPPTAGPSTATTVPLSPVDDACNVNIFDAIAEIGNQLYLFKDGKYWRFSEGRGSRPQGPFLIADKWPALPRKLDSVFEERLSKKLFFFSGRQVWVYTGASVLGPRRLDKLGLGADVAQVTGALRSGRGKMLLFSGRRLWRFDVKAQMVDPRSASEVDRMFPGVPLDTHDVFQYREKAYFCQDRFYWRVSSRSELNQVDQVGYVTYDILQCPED
Neutrophil collagenase, sequence (P22894 whole entry): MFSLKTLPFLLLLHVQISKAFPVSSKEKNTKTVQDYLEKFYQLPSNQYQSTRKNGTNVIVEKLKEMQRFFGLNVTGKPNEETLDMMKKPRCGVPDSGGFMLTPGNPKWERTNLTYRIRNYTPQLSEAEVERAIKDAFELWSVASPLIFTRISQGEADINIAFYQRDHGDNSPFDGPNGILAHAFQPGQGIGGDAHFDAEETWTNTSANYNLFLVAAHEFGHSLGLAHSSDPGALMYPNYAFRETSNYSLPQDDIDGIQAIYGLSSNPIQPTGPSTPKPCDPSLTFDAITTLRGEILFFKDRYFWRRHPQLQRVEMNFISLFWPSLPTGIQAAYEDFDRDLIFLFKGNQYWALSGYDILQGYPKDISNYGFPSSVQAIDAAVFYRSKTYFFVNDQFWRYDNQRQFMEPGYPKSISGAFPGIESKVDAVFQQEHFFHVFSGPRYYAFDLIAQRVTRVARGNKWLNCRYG
72 kDa type IV collagenase, sequence (P08253 whole entry): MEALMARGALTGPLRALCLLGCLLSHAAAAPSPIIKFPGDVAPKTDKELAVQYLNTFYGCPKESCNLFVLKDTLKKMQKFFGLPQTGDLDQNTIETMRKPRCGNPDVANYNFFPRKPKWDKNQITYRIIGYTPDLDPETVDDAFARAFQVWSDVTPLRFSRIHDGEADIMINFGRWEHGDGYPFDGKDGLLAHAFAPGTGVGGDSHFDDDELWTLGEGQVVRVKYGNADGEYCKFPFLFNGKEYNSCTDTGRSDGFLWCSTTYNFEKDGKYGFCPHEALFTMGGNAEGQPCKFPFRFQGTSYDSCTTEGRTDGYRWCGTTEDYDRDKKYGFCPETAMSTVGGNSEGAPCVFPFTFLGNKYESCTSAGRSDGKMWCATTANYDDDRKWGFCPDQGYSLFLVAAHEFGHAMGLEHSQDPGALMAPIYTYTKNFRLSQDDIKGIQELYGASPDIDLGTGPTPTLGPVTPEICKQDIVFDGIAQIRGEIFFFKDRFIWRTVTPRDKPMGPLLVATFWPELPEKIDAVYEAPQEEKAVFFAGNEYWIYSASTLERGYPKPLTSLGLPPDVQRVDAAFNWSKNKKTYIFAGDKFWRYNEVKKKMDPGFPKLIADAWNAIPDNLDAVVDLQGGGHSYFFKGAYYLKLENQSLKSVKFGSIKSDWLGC
Stromelysin-2, sequence (P09238 whole entry): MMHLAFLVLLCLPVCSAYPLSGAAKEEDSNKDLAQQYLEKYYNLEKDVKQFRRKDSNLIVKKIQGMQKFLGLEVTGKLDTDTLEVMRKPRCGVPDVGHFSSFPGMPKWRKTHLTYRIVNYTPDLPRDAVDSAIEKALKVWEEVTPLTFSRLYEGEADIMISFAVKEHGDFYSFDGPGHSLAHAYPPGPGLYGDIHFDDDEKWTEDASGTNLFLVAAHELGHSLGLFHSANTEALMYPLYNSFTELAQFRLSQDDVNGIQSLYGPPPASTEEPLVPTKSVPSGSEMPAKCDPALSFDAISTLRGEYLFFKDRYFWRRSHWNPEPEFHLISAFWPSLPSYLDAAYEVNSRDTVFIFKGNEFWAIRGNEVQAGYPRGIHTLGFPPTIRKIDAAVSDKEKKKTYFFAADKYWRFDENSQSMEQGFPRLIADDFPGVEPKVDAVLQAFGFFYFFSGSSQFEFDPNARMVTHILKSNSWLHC
Description for Collagenase 3: Inhibition of recombinant human AMPA-activated MMP13 using Cy3-PLGLK(Cy5Q)AR-NH2 as substrate measured after 40 mins by spectrofluorimetric method

For `O=C(NCc1cccc(-c2ccc(CS(=O)(=O)Cc3n[nH]c(=O)[nH]3)cc2)c1)c1nc2ccccc2c(=O)[nH]1`, the concentration for half-maximal inhibition (IC50) was 0.071 nM at Collagenase 3; 150 nM at Stromelysin-2; greater than 10000 nM in data set [1]; greater than 10000 nM on Matrilysin; greater than 10000 nM in data set [2]; greater than 10000 nM in data set [3]. The IC50 on Interstitial collagenase is greater than 10000 nM; on Neutrophil collagenase, 12 nM; at Stromelysin-1 it was 2400 nM; in data set [7] it was 23 nM; in [8] it was 9500 nM. In addition, at CYP3A4, the inhibition at 10 µM was determined as 29%. Besides, the concentration in solution in [4] (solubility) was 0.48 µg/mL (≈ 0.905 µM). Moreover, the results for the microsomal CLint in data set [5] and in data set [11] were 13 µL/min/mg and 7 µL/min/mg, respectively. Also, the clearance in data set [6] was 5.38 mL/min/kg. In data set [9], this compound displayed a bioavailability of 1.3%. For the same compound, the Vd in data set [10] was 0.32 L/kg. Further, the Papp in data set [12] is 0.7 ×10⁻⁶ cm/s.
